{"source": "patent US10441537B2", "about": "“Unit doses, aerosols, kits, and methods for treating heart conditions by pulmonary administration” (InCarda Therapeutics, Inc., priority 2017, dated 2019)", "key": {"[1]": {"test_system": "induced atrial fibrillation", "assay": "Induced atrial fibrillation model in anesthetized dogs, intratracheal (IT) administration", "format": "in vivo", "description": "Atrial Fibrillation Model: Anesthesia/Surgical Preparation: A venous catheter was placed in a peripheral vessel (i.e., cephalic) for administration of anesthetic. […] Following induction, animals were endotracheally intubated and mechanically ventilated (˜12 breaths/minute with a tidal volume of 200-300 mL). Subsequently, a cut-down on a jugular vein permitted introduction of a pacing lead into the right atrium. Transthoracic electrodes forming ECG lead II were placed. For test/vehicle article delivery, a 4F catheter was introduced through the trachea and wedged into a small airway, and a venous catheter was placed in a peripheral vessel (i.e., cephalic). […] Approximately 5 min after administration of this parasympathomimetic was started; the following experiments were performed: […] Observations were made for up to 10 minutes. […] Vehicle was only water."}, "healthy volunteers": {"test_system": "healthy volunteers", "assay": "Phase 1 study: auscultation, respiration rate, chest x-rays", "format": "in vivo, human", "description": "Pulmonary safety was assessed by performing lung spirometry tests and measuring peripheral oxygen saturation (SpO2%) prior to dosing and at various times after completion of the inhalation. Lung spirometry tests evaluated all lung function parameters, including forced vital capacity (FVC), forced expiratory volume in 1 second (FEV1), peak expiratory flow (PEF), and forced expiratory flow at 25% and 75% intervals (FEF25-75). Auscultation and respiration rate were also measured prior to dosing and at various times after inhalation. Chest x-rays were performed on subjects before and after flecainide inhalation."}, "[2]": {"test_system": "anesthetized Yorkshire pigs", "assay": "PD responses (HR, MAP, ECG intervals) in anesthetized Yorkshire pigs, IV vs IT", "format": "in vivo", "description": "All catheters were positioned under fluoroscopic guidance. […] Data are reported as means+ SEM. Statistical analyses were performed using the SAS system (9.4) to apply ANOVA with a post-hoc Dunnett's test. Statistical significance was assumed at p<0.05."}, "[3]": {"test_system": "induced atrial fibrillation", "assay": "ACh and burst-pacing-induced AF duration in pigs (Example 5)", "format": "in vivo", "conditions": "IT 1.5 mg/kg", "description": "At one min after intrapericardial administration of ACh (1 ml of 100 mM), burst pacing was performed to initiate AF in the control cohort (FIG. 60). In the experimental cohort, after ACh and burst-pacing-induced AF, a stable period of 2 min of AF was allowed (FIG. 60). […] Table 12; FIG. 61)."}, "[4]": {"test_system": "induced atrial fibrillation", "assay": "Conversion of ACh/burst-pacing-induced AF in intact porcine model (Example 6)", "format": "in vivo, pigs", "description": "After 30-min recovery, the alternate intervention was tested. Times for conversion to normal sinus rhythm were compared."}, "[5]": {"test_system": "induced atrial fibrillation", "assay": "Conversion of phenylephrine/burst-pacing-induced AF in anesthetized beagle dogs (Example 7)", "format": "in vivo", "conditions": "for Time to NSR: IT", "description": "The study was carried out in anesthetized healthy adult beagle dogs with induced AF. Acute AF was induced using the combination of phenylephrine ([…]), to increase heterogeneity of atrial refractory periods via increased loading and through a baroreceptor-mediated increase in parasympathetic efferent activity, and right atrial burst pacing (40-50 Hz for ˜15 min). The AF induced using this method was, in general, stable for more than 30 mins.\nThe cardiac rhythm was monitored prior to, during AF, and up to 10 min post-dosing and/or until conversion to NSR."}, "[6]": {"conditions": "IV 2 mg/Kg, n=3, package insert; cited from earlier work"}, "[7]": {"conditions": "before and after inhalation of 20, 30, 40 mg eTLD"}}}
{"smiles": "O=C(NCC1CCCCN1)c1cc(OCC(F)(F)F)ccc1OCC(F)(F)F", "note": "(stereo not shown) [flecainide, flecainide acetate]", "values": [{"measurement": "ECG trace: Afib conversion", "setting": "[1]; 2 mg/kg body weight (FIG. 12)", "value": "Afib converting as soon as dosing occurred"}, {"measurement": "ECG trace: Afib conversion", "setting": "[1]; 4 mg/kg body weight, intra-tracheal instillation (FIG. 11)", "value": "Afib converting into normal sinus rhythm"}, {"measurement": "conversion of Atrial Fibrillation to normal sinus rhythm", "setting": "[1]; IT bolus", "value": "rapidly converted the Atrial Fibrillation to normal sinus rhythm"}, {"measurement": "cardiovascular effect when given by intratracheal instillation (summary)", "setting": "[1]; dog, in vivo", "value": "clear cardiovascular effect"}, {"measurement": "ventricular rate", "setting": "[1]; large pulmonary doses", "value": "slower ventricular rates"}, {"measurement": "drop in mean arterial pressure", "setting": "[1]; pulmonary dose 2-4 mg/kg", "value": "None to minimal drop in mean arterial pressure"}, {"measurement": "conversion of induced atrial fibrillation to normal sinus rhythm", "setting": "[1]; pulmonary dose 2-4 mg/kg body weight", "value": "converted the induced atrial fibrillation to normal sinus rhythm"}, {"measurement": "respiratory rate", "setting": "healthy volunteers; Cohorts 1, 2, 3 and 5", "value": "minimal or no changes in respiratory rate"}, {"measurement": "Auscultation", "setting": "healthy volunteers; [7]", "value": "normal in all subjects"}, {"measurement": "Chest x-rays", "setting": "healthy volunteers; [7]", "value": "normal and showed no changes"}, {"measurement": "respiration rate", "setting": "healthy volunteers; [7]", "value": "No changes in respiration rate"}, {"measurement": "mean arterial pressure", "setting": "[2]; IT 0.75 mg/kg, baseline 111±3.6 mmHg, p=0.9112", "value": "not significantly altered"}, {"measurement": "heart rate", "setting": "[2]; IT 0.75 mg/kg, baseline 111±6.4 bpm, p=0.9970", "value": "not significantly altered"}, {"measurement": "PR interval", "setting": "[2]; IT 0.75 mg/kg, baseline 130±5.3 ms, p=0.9351", "value": "not significantly changed"}, {"measurement": "JTc interval", "setting": "[2]; IT 0.75 mg/kg, baseline 354±12.0 ms, p=0.7605", "value": "not significantly changed"}, {"measurement": "QTc interval", "setting": "[2]; IT 0.75 mg/kg, baseline 435±12.9 ms, p=0.5505", "value": "not significantly changed"}, {"measurement": "mean arterial pressure", "setting": "[2]; IT 1.5 mg/kg, baseline 108±9.4 mmHg, p=0.9894", "value": "not significantly altered"}, {"measurement": "heart rate", "setting": "[2]; IT 1.5 mg/kg, baseline 118±13.2 bpm, p=0.9999", "value": "not significantly altered"}, {"measurement": "PR interval", "setting": "[2]; IT 1.5 mg/kg, baseline 127±2.3 ms, p=0.0819", "value": "not significantly changed"}, {"measurement": "JTc interval", "setting": "[2]; IT 1.5 mg/kg, baseline 364±11.5 ms, p=0.9968", "value": "not significantly changed"}, {"measurement": "QTc interval", "setting": "[2]; IT 1.5 mg/kg, baseline 436±7.1 ms, p=0.1510", "value": "not significantly changed"}, {"measurement": "heart rate", "setting": "[2]; IV 2 mg/kg, baseline 103±1.9 bpm, ANOVA p=0.9936, 30 min", "value": "not significantly altered"}, {"measurement": "mean arterial pressure", "setting": "[2]; IV 2 mg/kg, baseline 105±6.7 mmHg, p=0.8852", "value": "not significantly altered"}, {"measurement": "PR interval", "setting": "[2]; IV 2 mg/kg, baseline 127±7.8 ms, p=0.5161", "value": "not significantly changed"}, {"measurement": "JTc interval", "setting": "[2]; IV 2 mg/kg, baseline 367±7.4 ms, p=0.9686", "value": "not significantly changed"}, {"measurement": "QTc interval", "setting": "[2]; IV 2 mg/kg, baseline 442±7.9 ms, p=0.35", "value": "not significantly changed"}, {"measurement": "recurrence of AF after restoration of sinus rhythm", "setting": "[3]; 30-min window of observation", "value": "no recurrence of AF occurred"}, {"measurement": "AF duration", "setting": "[3]; Pig 236 (No drug 10)", "value": 4, "unit": "min"}, {"measurement": "AF duration", "setting": "[3]; Pig 238 (No drug 12)", "value": 3, "unit": "min"}, {"measurement": "AF duration", "setting": "[3]; Pig 239 (No drug 12)", "value": 3, "unit": "min"}, {"measurement": "time within which plasma concentration reached levels required for conversion", "setting": "[4]; IT 0.75 mg/kg and 1.5 mg/kg (FIG. 66A)", "value": "≤ 10", "unit": "min"}, {"measurement": "dominant frequency of AF", "setting": "[4]; IT 0.75 mg/kg and 1.5 mg/kg (FIG. 67)", "value": "reduced the dominant frequency of AF"}, {"measurement": "AF conversion in representative electrograms", "setting": "[4]; IT 1.5 mg/kg (FIG. 65)", "value": 5, "unit": "min"}, {"measurement": "MAP and ventricular rate after conversion", "setting": "[4]; IT 1.5 mg/kg or 0.75 mg/kg", "value": "restored MAP and ventricular rate to baseline values"}, {"measurement": "Time to NSR", "setting": "[5]; Animal 002, dose 0.75 (0.25 + 0.5) mg/kg", "value": 52, "unit": "s"}, {"measurement": "Time to NSR", "setting": "[5]; Animal 003, dose 0.75 mg/kg", "value": 12, "unit": "s"}, {"measurement": "Time to NSR", "setting": "[5]; Animal 004, dose 0.75 mg/kg", "value": 23, "unit": "s"}, {"measurement": "Time to NSR", "setting": "[5]; Animal 005, dose 0.75 mg/kg", "value": 62, "unit": "s"}, {"measurement": "Time to NSR", "setting": "[5]; Animal 006, dose 1.0 (0.75 + 0.25) mg/kg", "value": 83, "unit": "s"}, {"measurement": "effects in BP, VR and LV dP/dtmax upon conversion, IV vs IT", "setting": "[5]; IV compared with IT administration", "value": "greater effects in BP, VR and LV dP/dtmax"}, {"measurement": "pH of solution in water", "setting": "2.6 mg/mL", "value": 5.0}, {"measurement": "appearance of solution", "setting": "distilled water, diltiazem hydrochloride 50 mg/ml, flecainide acetate 30 mg/ml", "value": "clear with no visible particulate matter"}, {"measurement": "Tmax", "setting": "[6]", "value": 10.0, "unit": "min after EOI"}]}
